This is an account of results in PubChem BioAssay (NCI).

Among the test systems are HL-60(TB) leukemia; SK-MEL-2 melanoma; IGROV1 ovarian; OVCAR-4 ovarian; OVCAR-3 ovarian; U251 CNS; COLO 205 colon; A549 NSCLC.
What all share (assay): NCI anticancer screen, dose series, 48 h

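Compound exposure: 48 hours, 5 concentrations, 96-well plates. Abbreviation: GI50, concentration required for 50% inhibition of growth. TGI is the concentration that stops growth completely.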

On to `Clc1cccc(Cn2cc(Cc3cn(Cc4cccc(Cl)c4)c4ccccc34)c3ccccc32)c1`, for which the GI50 in the assay with HL-60(TB) leukemia is greater than 100 µM; in the assay on SK-MEL-2 melanoma it was greater than 100 µM; in the assay with IGROV1 ovarian it was 32 µM; in the assay with OVCAR-4 ovarian, greater than 100 µM; with OVCAR-3 ovarian, greater than 100 µM; in the assay on U251 CNS, greater than 100 µM. Moreover, the GI50 in the assay with COLO 205 colon and with A549 NSCLC was greater than 100 µM each time. Further, the TGI with HL-60(TB) leukemia, in the assay with SK-MEL-2 melanoma, with IGROV1 ovarian, with OVCAR-4 ovarian, with OVCAR-3 ovarian and in the assay on U251 CNS was greater than 100 µM each time. The TGI in the assay with COLO 205 colon and in the assay on A549 NSCLC was greater than 100 µM throughout.
Regarding `O=C1OCC2=C1C(c1cccc([N+](=O)[O-])c1)c1cc3c(cc1N2CCO)CCC3` (stereo unspecified), the GI50 was 0.137 µM in the assay with HL-60(TB) leukemia; 2.8 µM with SK-MEL-2 melanoma; 0.255 µM in the assay on IGROV1 ovarian; 2.03 µM in the assay with OVCAR-4 ovarian; 0.0961 µM in the assay with OVCAR-3 ovarian; 0.218 µM in the assay on U251 CNS. Moreover, the GI50 is 0.153 µM in the assay on COLO 205 colon and 0.223 µM with A549 NSCLC. Further, the TGI with HL-60(TB) leukemia is 0.373 µM; in the assay with SK-MEL-2 melanoma, 48 µM; with IGROV1 ovarian it was greater than 50 µM; in the assay on OVCAR-4 ovarian it was greater than 50 µM; with OVCAR-3 ovarian, 0.518 µM; with U251 CNS, greater than 50 µM. Besides, the TGI with COLO 205 colon is 2.39 µM; in the assay with A549 NSCLC it was greater than 50 µM.
On to `NC(Cc1cc(Br)c(O)c(Br)c1)C(=O)O` (stereo unspecified), for which the TGI in the assay with HL-60(TB) leukemia, in the assay on SK-MEL-2 melanoma, with IGROV1 ovarian, in the assay with OVCAR-4 ovarian, in the assay on OVCAR-3 ovarian and in the assay on U251 CNS was greater than 100 µM each time. The TGI in the assay on COLO 205 colon and with A549 NSCLC was greater than 100 µM each time.
Turning to `NC(=O)Cc1ccccc1Oc1nccc(-c2c(-c3ccc(F)cc3)ncn2C2CCNCC2)n1`, the GI50 in the assay with HL-60(TB) leukemia, with SK-MEL-2 melanoma, with IGROV1 ovarian, in the assay with OVCAR-4 ovarian, with OVCAR-3 ovarian and in the assay with U251 CNS was greater than 25 µM each time. Further, the GI50 with COLO 205 colon and in the assay on A549 NSCLC was greater than 25 µM each time. Further, the TGI in the assay with HL-60(TB) leukemia, in the assay on SK-MEL-2 melanoma, with IGROV1 ovarian, with OVCAR-4 ovarian, with OVCAR-3 ovarian and in the assay with U251 CNS was greater than 25 µM throughout. The TGI with COLO 205 colon and in the assay with A549 NSCLC was greater than 25 µM each time.
Regarding `Cc1nc(NC(=O)COc2cccc(/C=C3\COc4ccccc4C3=O)c2)sc1C`, the GI50 in the assay with HL-60(TB) leukemia is 2.8 µM; in the assay on SK-MEL-2 melanoma, 1.62 µM; in the assay on IGROV1 ovarian, 0.43 µM; in the assay with OVCAR-4 ovarian, 4.02 µM; in the assay with OVCAR-3 ovarian it was 1.83 µM; in the assay on U251 CNS, 1.54 µM. Also, the GI50 is 1.96 µM in the assay on COLO 205 colon and 3.7 µM in the assay with A549 NSCLC. Moreover, the TGI with HL-60(TB) leukemia was greater than 29.9 µM; in the assay with SK-MEL-2 melanoma, 3.17 µM; with IGROV1 ovarian, 0.902 µM; in the assay on OVCAR-4 ovarian, 13.9 µM; with OVCAR-3 ovarian it was 3.27 µM; in the assay with U251 CNS, 2.9 µM. The results for the TGI in the assay with COLO 205 colon and with A549 NSCLC were 3.88 µM and 12.4 µM, respectively.
On to `O=C1OCC2=C1C(c1ccccc1)c1cc3c(cc1N2CCO)CCC3` (stereo unspecified), for which the GI50 in the assay with HL-60(TB) leukemia was 0.0871 µM; in the assay on SK-MEL-2 melanoma, 0.0901 µM; with IGROV1 ovarian, 0.0799 µM; in the assay with OVCAR-4 ovarian it was 0.127 µM; in the assay on OVCAR-3 ovarian, 0.0467 µM; in the assay with U251 CNS it was 0.116 µM. The GI50 is 0.0854 µM with COLO 205 colon and 0.152 µM with A549 NSCLC. In addition, the TGI in the assay on HL-60(TB) leukemia was 1.94 µM; with SK-MEL-2 melanoma, greater than 8.97 µM; in the assay with IGROV1 ovarian, 0.774 µM; in the assay on OVCAR-4 ovarian it was greater than 25 µM; in the assay with OVCAR-3 ovarian it was 0.0975 µM; in the assay on U251 CNS it was greater than 25 µM. Besides, the TGI with COLO 205 colon was 0.331 µM; with A549 NSCLC, greater than 25 µM.
Regarding `O=C(O[C@H]1CN[C@H](C#Cc2cc3ncnc(Nc4ccc(Cc5ccccc5)cc4)c3s2)C1)N1CCOCC1`, the GI50 is 5.5 µM in the assay with HL-60(TB) leukemia; 5.41 µM in the assay on SK-MEL-2 melanoma; 2.45 µM with IGROV1 ovarian; 6.22 µM in the assay with OVCAR-4 ovarian; 3.85 µM in the assay with OVCAR-3 ovarian; 5.52 µM in the assay with U251 CNS. Also, the GI50 was 5.37 µM in the assay on COLO 205 colon and 4.86 µM with A549 NSCLC. The TGI with HL-60(TB) leukemia was 17.1 µM; in the assay on SK-MEL-2 melanoma it was 14.4 µM; in the assay on IGROV1 ovarian, greater than 20.1 µM; in the assay with OVCAR-4 ovarian, greater than 25 µM; in the assay with OVCAR-3 ovarian, 11 µM; in the assay on U251 CNS it was 20.3 µM. Besides, the TGI was 13.1 µM in the assay on COLO 205 colon and greater than 25 µM with A549 NSCLC.
On to `C[C@H]1O[C@@H](O[C@H]2[C@@H](O)C[C@H](O[C@H]3[C@@H](O)C[C@H](O[C@H]4CC[C@]5(C)C6C[C@@H](O)[C@]7(C)[C@@H](C8=CC(=O)OC8)CC[C@]7(O)C6CC[C@@H]5C4)O[C@@H]3C)O[C@@H]2C)C[C@H](O)[C@@H]1O` (stereo partly specified), for which the GI50 with HL-60(TB) leukemia was 0.034 µM; with SK-MEL-2 melanoma, 0.121 µM; with IGROV1 ovarian it was 0.145 µM; in the assay with OVCAR-4 ovarian, 0.101 µM; with OVCAR-3 ovarian, 0.0241 µM; with U251 CNS, 0.0668 µM. The figures for the GI50 in the assay on COLO 205 colon and in the assay with A549 NSCLC were 0.146 µM and 0.0163 µM, respectively. The TGI is 0.12 µM in the assay on HL-60(TB) leukemia; 0.328 µM in the assay with SK-MEL-2 melanoma; 3.45 µM in the assay with IGROV1 ovarian; 0.306 µM in the assay with OVCAR-4 ovarian; 0.0792 µM in the assay on OVCAR-3 ovarian; 0.145 µM with U251 CNS. The TGI in the assay on COLO 205 colon came to 0.374 µM; with A549 NSCLC, 0.0581 µM.
Regarding `NC(=O)c1cccc(N)c1`, the GI50 with HL-60(TB) leukemia, with SK-MEL-2 melanoma, with IGROV1 ovarian, with OVCAR-4 ovarian, in the assay on OVCAR-3 ovarian and with U251 CNS was greater than 100 µM throughout. Further, the GI50 with COLO 205 colon and with A549 NSCLC was greater than 100 µM in each case. Also, the TGI in the assay on HL-60(TB) leukemia, with SK-MEL-2 melanoma, in the assay on IGROV1 ovarian, in the assay with OVCAR-4 ovarian, in the assay on OVCAR-3 ovarian and in the assay on U251 CNS was greater than 100 µM in each case. Also, the TGI in the assay on COLO 205 colon and in the assay with A549 NSCLC was greater than 100 µM in each case.
